Reference: ChEMBL document CHEMBL1201862, “PubChem BioAssay data set” (2004)
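Growth conditions: 96-well plates. Treatment: test compound, 48 hours, 5 concentrations. Analysis: linear interpolation between bracketing concentrations; unreached endpoints set to highest concentration. GI50 marks 50% less growth.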 Active and inactive are the calls of the source. Rule as the data show it: active = GI50 up to about 1.1 µM and inactive = higher.

Key:
Experiment in all cases: NCI anticancer screen, dose series, 48 h
A498 = system: A498
A549 = system: A549
COLO 205 = system: COLO 205
HCC 2998 = system: HCC 2998
MDA-MB-231 = system: MDA-MB-231
MOLT-4 = system: MOLT-4
NCI-H23 = system: NCI-H23
NCI-H460 = system: NCI-H460
NCI/ADR-RES = system: NCI/ADR-RES
RPMI-8226 = system: RPMI-8226
RXF 393 = system: RXF 393
SK-MEL-28 = system: SK-MEL-28
SK-MEL-5 = system: SK-MEL-5
SK-OV-3 = system: SK-OV-3
SN12C = system: SN12C
SNB-75 = system: SNB-75
SW-620 = system: SW-620
T47D = system: T47D
UACC-62 = system: UACC-62
HOP-62 = system: HOP-62

Measured: GI50

COc1ccc(OC)c2c1C(=O)C(Cl)=C(Cl)C2=O
inactive: A498 20.3 µM | A549 22.3 µM | COLO 205 1.56 µM | HCC 2998 17.3 µM | MDA-MB-231 2.74 µM | MOLT-4 2.51 µM | NCI-H23 6.37 µM | NCI-H460 19.8 µM | NCI/ADR-RES 2.58 µM | RPMI-8226 3.02 µM | RXF 393 1.85 µM | SK-MEL-28 3.79 µM | SK-MEL-5 5.64 µM | SK-OV-3 28.4 µM | SN12C 10.7 µM | SNB-75 14.2 µM | SW-620 1.81 µM | T47D 3.17 µM | UACC-62 2.58 µM

Cc1ccc(C2=Nc3ccccc3SC(c3cccc([N+](=O)[O-])c3)C2)cc1 (stereo not given)
inactive: A498 > 100 µM | A549 26.2 µM | COLO 205 58.7 µM | HOP-62 27.6 µM | MDA-MB-231 40.6 µM | NCI-H23 11.8 µM | NCI-H460 27.9 µM | NCI/ADR-RES 59.6 µM | RPMI-8226 2.38 µM | RXF 393 16.4 µM | SK-MEL-28 > 100 µM | SK-MEL-5 15.4 µM | SK-OV-3 31.1 µM | SN12C 34.1 µM | SNB-75 11.4 µM | SW-620 3.18 µM | T47D 10.7 µM | UACC-62 > 100 µM

O=C(c1ccccc1)c1ccc2c(c1)nc1n2C(c2c(F)cccc2F)SC1 (stereo not given)
inactive: A498 19.5 µM | A549 22 µM | COLO 205 24.1 µM | HCC 2998 36.5 µM | HOP-62 34 µM | MDA-MB-231 41.9 µM | NCI-H23 28.8 µM | NCI-H460 17.1 µM | NCI/ADR-RES 29.9 µM | RPMI-8226 30.3 µM | RXF 393 29 µM | SK-MEL-28 32.1 µM | SK-MEL-5 12.9 µM | SK-OV-3 30.5 µM | SN12C 18.7 µM | SNB-75 18.9 µM | SW-620 37.2 µM | T47D 4.71 µM | UACC-62 15.5 µM

CC(C)(C)OC(=O)NCC(c1c[nH]c2ccccc12)c1c[nH]c2ccccc12
inactive: A498 > 100 µM | A549 14.6 µM | COLO 205 14.6 µM | HOP-62 16.9 µM | MDA-MB-231 16 µM | MOLT-4 11.7 µM | NCI-H23 18.4 µM | NCI-H460 14.9 µM | NCI/ADR-RES 19.4 µM | RPMI-8226 6.62 µM | RXF 393 4.56 µM | SK-MEL-28 18.1 µM | SK-MEL-5 13 µM | SK-OV-3 16.8 µM | SN12C 16.7 µM | SNB-75 14.7 µM | SW-620 17 µM | T47D 17 µM | UACC-62 > 100 µM

CSC(=S)N/N=C/c1ccccc1
inactive: A498 > 100 µM | A549 43.2 µM | COLO 205 31.5 µM | HCC 2998 > 100 µM | HOP-62 40.7 µM | MDA-MB-231 > 100 µM | NCI-H23 33.5 µM | NCI-H460 43.7 µM | NCI/ADR-RES 25.4 µM | RPMI-8226 36.4 µM | RXF 393 28.8 µM | SK-MEL-28 94.2 µM | SK-MEL-5 22.5 µM | SK-OV-3 > 100 µM | SN12C 50.2 µM | SNB-75 58.7 µM | SW-620 54.8 µM | T47D 16.3 µM | UACC-62 37.4 µM

COCc1cc2c(s1)C(=O)C1=C(C2=O)C2(C=C(Br)C(=O)C(Br)=C2)CCN1
inactive: A498 15.7 µM | A549 6.53 µM | COLO 205 3.02 µM | HCC 2998 11.1 µM | MDA-MB-231 3.04 µM | MOLT-4 2.43 µM | NCI-H23 2.38 µM | NCI-H460 3.58 µM | NCI/ADR-RES 3.52 µM | RPMI-8226 3.25 µM | RXF 393 2.4 µM | SK-MEL-28 7.67 µM | SK-MEL-5 1.71 µM | SK-OV-3 17 µM | SN12C 8.15 µM | SNB-75 14.6 µM | SW-620 3.21 µM | T47D 3.06 µM | UACC-62 1.56 µM

CC(C)C1CNC(=O)C2(/C=N/C(C(C)C)CNC(=O)C3(/C=N/1)CCCO3)CCCO2 (stereo not given)
inactive: A498 > 10 µM | A549 > 10 µM | COLO 205 > 10 µM | HCC 2998 > 10 µM | HOP-62 > 10 µM | MDA-MB-231 > 10 µM | MOLT-4 > 10 µM | NCI-H23 > 10 µM | NCI/ADR-RES > 10 µM | RPMI-8226 > 10 µM | RXF 393 > 10 µM | SK-MEL-28 > 10 µM | SK-MEL-5 > 10 µM | SK-OV-3 > 10 µM | SN12C > 10 µM | SNB-75 > 10 µM | SW-620 > 10 µM | T47D > 10 µM | UACC-62 > 10 µM

COc1ccc(N2C(=O)/C(=C/c3ccc(N(CCC#N)CCC#N)cc3)N=C2c2ccccc2)cc1
inactive: A498 > 100 µM | A549 > 100 µM | COLO 205 > 100 µM | HOP-62 > 100 µM | MDA-MB-231 > 100 µM | MOLT-4 > 100 µM | NCI-H460 > 100 µM | NCI/ADR-RES > 100 µM | RPMI-8226 > 100 µM | RXF 393 > 100 µM | SK-MEL-28 > 100 µM | SK-MEL-5 > 100 µM | SK-OV-3 > 100 µM | SN12C > 100 µM | SNB-75 > 100 µM | SW-620 > 100 µM | T47D > 100 µM | UACC-62 > 100 µM
